# Laboratory results taken from patent publication US10064873B2, “Compounds and compositions for treating HIV with derivatives of Betulin” (GlaxoSmithKline LLC, priority 2011, dated 2018).
# Test system: HIV NL4-3 wt
# Assay: MT4 antiviral assay, NL4-3 strain wild type
# Format: cell-based, HIV-1
# Conditions: Human immunodeficiency virus 1, NL43, MT4, read-out: EC50 NL4-3 wt (nM)
row,SMILES,EC50
1,"CC(C)C1=C2[C@H]3CC[C@@H]4[C@@]5(C)CC[C@H](OC(=O)CC(C)(C)C(=O)O)C(C)(C)[C@@H]5CC[C@@]4(C)[C@]3(C)CC[C@@]2(CCNCc2ccccc2)CC1=O [Example 6, 4-(((3aR,5aR,5bR,7aR,9S,11aR,11bR,13aS)-3a-(2-(Benzylamino)ethyl)-1-isopropyl-5a,5b,8,8,11a-pentamethyl-2-oxo-3,3a,4,5,5a,5b,6,7,7a,8,9,10,11,11a,11b,12,13,13a-octadecahydro-2H-cyclopenta[a]chrysen-9-yl)oxy)-2,2-dimethyl-4-oxobutanoic acid]",0.5 nM
2,"CC(C)C1=C2[C@H]3CC[C@@H]4[C@@]5(C)CC[C@H](OC(=O)CC(C)(C)C(=O)O)C(C)(C)[C@@H]5CC[C@@]4(C)[C@]3(C)CC[C@@]2(CCNCc2cccc(Cl)c2)CC1=O [Example 7, 4-(((3aR,5aR,5bR,7aR,9S,11aR,11bR,13aS)-3a-(2-((3-Chlorobenzyl)amino)ethyl)-1-isopropyl-5a,5b,8,8,11a-pentamethyl-2-oxo-3,3a,4,5,5a,5b,6,7,7a,8,9,10,11,11a,11b,12,13,13a-octadecahydro-2H-cyclopenta[a]chrysen-9-yl)oxy)-2,2-dimethyl-4-oxobutanoic acid]",6.1 nM
3,"CC(C)C1=C2[C@H]3CC[C@@H]4[C@@]5(C)CC[C@H](OC(=O)CC(C)(C)C(=O)O)C(C)(C)[C@@H]5CC[C@@]4(C)[C@]3(C)CC[C@@]2(CCN(C)Cc2ccc(Cl)cc2)CC1=O [Example 12, 4-(((3aR,5aR,5bR,7aR,9S,11aR,11bR,13aS)-3a-(2-((4-Chlorobenzyl)(methyl)amino)ethyl)-1-isopropyl-5a,5b,8,8,11a-pentamethyl-2-oxo-3,3a,4,5,5a,5b,6,7,7a,8,9,10,11,11a,11b,12,13,13a-octadecahydro-2H-cyclopenta[a]chrysen-9-yl)oxy)-2,2-dimethyl-4-oxobutanoic acid]",4.5 nM

# Same assay, conditions: Human immunodeficiency virus 1, NL43; MT4 cells; read-out: EC50 NL4-3 wt
row,SMILES,EC50
1,"CC(C)C1=C2[C@H]3CC[C@@H]4[C@@]5(C)CC[C@H](OC(=O)CC(C)(C)C(=O)O)C(C)(C)[C@@H]5CC[C@@]4(C)[C@]3(C)CC[C@@]2(CCNCc2ccc(Cl)cc2)CC1=O [Example 5, 4-(((3aR,5aR,5bR,7aR,9S,11aR,11bR,13aS)-3a-(2-((4-Chlorobenzyl)amino)ethyl)-1-isopropyl-5a,5b,8,8,11a-pentamethyl-2-oxo-3,3a,4,5,5a,5b,6,7,7a,8,9,10,11,11a,11b,12,13,13a-octadecahydro-2H-cyclopenta[a]chrysen-9-yl)oxy)-2,2-dimethyl-4-oxobutanoic acid]",2.6 nM
2,"CC(C)C1=C2[C@H]3CC[C@@H]4[C@@]5(C)CC[C@H](OC(=O)CC(C)(C)C(=O)O)C(C)(C)[C@@H]5CC[C@@]4(C)[C@]3(C)CC[C@@]2(CCNCc2cccc(Cl)c2F)CC1=O [Example 8, 4-(((3aR,5aR,5bR,7aR,9S,11aR,11bR,13aS)-3a-(2-((3-Chloro-2-fluorobenzyl)amino)ethyl)-1-isopropyl-5a,5b,8,8,11a-pentamethyl-2-oxo-3,3a,4,5,5a,5b,6,7,7a,8,9,10,11,11a,11b,12,13,13a-octadecahydro-2H-cyclopenta[a]chrysen-9-yl)oxy)-2,2-dimethyl-4-oxobutanoic acid]",5.9 nM
3,"CC(C)C1=C2[C@H]3CC[C@@H]4[C@@]5(C)CC[C@H](OC(=O)CC(C)(C)C(=O)O)C(C)(C)[C@@H]5CC[C@@]4(C)[C@]3(C)CC[C@@]2(CCNC2(c3ccc(Cl)cc3)CC2)CC1=O [Example 9, 4-(((3aR,5aR,5bR,7aR,9S,11aR,11bR,13aS)-3a-(2-((1-(4-chlorophenyl)cyclopropyl)amino)ethyl)-1-isopropyl-5a,5b,8,8,11a-pentamethyl-2-oxo-3,3a,4,5,5a,5b,6,7,7a,8,9,10,11,11a,11b,12,13,13a-octadecahydro-2H-cyclopenta[a]chrysen-9-yl)oxy)-2,2-dimethyl-4-oxobutanoic acid]",12.3 nM
4,"CC(C)C1=C2[C@H]3CC[C@@H]4[C@@]5(C)CC[C@H](OC(=O)CC(C)(C)C(=O)O)C(C)(C)[C@@H]5CC[C@@]4(C)[C@]3(C)CC[C@@]2(CCN(CCN(C)C)C2(c3ccc(Cl)cc3)CC2)CC1=O [Example 11, 4-(((3aR,5aR,5bR,7aR,9S,11aR,11bR,13aS)-3a-(2-((1-(4-Chlorophenyl)cyclopropyl)(2-(dimethylamino)ethyl)amino)ethyl)-1-isopropyl-5a,5b,8,8,11a-pentamethyl-2-oxo-3,3a,4,5,5a,5b,6,7,7a,8,9,10,11,11a,11b,12,13,13a-octadecahydro-2H-cyclopenta[a]chrysen-9-yl)oxy)-2,2-dimethyl-4-oxobutanoic acid]",6.3 nM
5,"CC(=O)N(CC[C@@]12CC[C@]3(C)[C@H](CC[C@@H]4[C@@]5(C)CC[C@H](OC(=O)CC(C)(C)C(=O)O)C(C)(C)[C@@H]5CC[C@]43C)C1=C(C(C)C)C(=O)C2)Cc1ccc(Cl)cc1 [Example 13, 4-(((3aR,5aR,5bR,7aR,9S,11aR,11bR,13aS)-3a-(2-(N-(4-Chlorobenzyl)acetamido)ethyl)-1-isopropyl-5a,5b,8,8,11a-pentamethyl-2-oxo-3,3a,4,5,5a,5b,6,7,7a,8,9,10,11,11a,11b,12,13,13a-octadecahydro-2H-cyclopenta[a]chrysen-9-yl)oxy)-2,2-dimethyl-4-oxobutanoic acid]",1.6 nM
6,"CC(C)C1=C2[C@H]3CC[C@@H]4[C@@]5(C)CC[C@H](OC(=O)CC(C)(C)C(=O)O)C(C)(C)[C@@H]5CC[C@@]4(C)[C@]3(C)CC[C@@]2([C@@H](O)CNCc2ccc(Cl)cc2)CC1=O [Example 14, 4-(((3aR,5aR,5bR,7aR,9S,11aR,11bR,13aS)-3a-((R)-2-((4-Chlorobenzyl)amino)-1-hydroxyethyl)-1-isopropyl-5a,5b,8,8,11a-pentamethyl-2-oxo-3,3a,4,5,5a,5b,6,7,7a,8,9,10,11,11a,11b,12,13,13a-octadecahydro-2H-cyclopenta[a]chrysen-9-yl)oxy)-2,2-dimethyl-4-oxobutanoic acid]",2.1 nM
7,"CC(C)C1=C2[C@H]3CC[C@@H]4[C@@]5(C)CC[C@H](OC(=O)CC(C)(C)C(=O)O)C(C)(C)[C@@H]5CC[C@@]4(C)[C@]3(C)CC[C@@]2([C@H](O)CNCc2ccc(Cl)cc2)CC1=O [Example 15, 4-(((3aR,5aR,5bR,7aR,9S,11aR,11bR,13aS)-3a-((S)-2-((4-Chlorobenzyl)amino)-1-hydroxyethyl)-1-isopropyl-5a,5b,8,8,11a-pentamethyl-2-oxo-3,3a,4,5,5a,5b,6,7,7a,8,9,10,11,11a,11b,12,13,13a-octadecahydro-2H-cyclopenta[a]chrysen-9-yl)oxy)-2,2-dimethyl-4-oxobutanoic acid]",6.9 nM
8,"CC(=O)O[C@@H](CNCc1ccc(Cl)cc1)[C@@]12CC[C@]3(C)[C@H](CC[C@@H]4[C@@]5(C)CC[C@H](OC(=O)CC(C)(C)C(=O)O)C(C)(C)[C@@H]5CC[C@]43C)C1=C(C(C)C)C(=O)C2 [Example 16, 4-(((3aR,5aR,5bR,7aR,9S,11aR,11bR,13aS)-3a-((R)-1-Acetoxy-2-((4-chlorobenzyl)amino)ethyl)-1-isopropyl-5a,5b,8,8,11a-pentamethyl-2-oxo-3,3a,4,5,5a,5b,6,7,7a,8,9,10,11,11a,11b,12,13,13a-octadecahydro-2H-cyclopenta[a]chrysen-9-yl)oxy)-2,2-dimethyl-4-oxobutanoic acid]",11 nM
